This is an account of results in ChEMBL document CHEMBL3232969, “Structure-based design and synthesis of tricyclic IAP (Inhibitors of Apoptosis Proteins) inhibitors” (Bioorg Med Chem Lett, 2014).

Series [1] deals with E3 ubiquitin-protein ligase XIAP (Homo sapiens, UniProt P98170). In words: Inhibition of XIAP BIR3 domain (unknown origin) by fluorescence polarization assay.
The subject of series [2] is MDA-MB-231. Description: Growth inhibition of human MDA-MB-231 cells. It counts as functional.
The nature of series [3]: (§1) Percentage unbound in human plasma. Particulars: Fu.
A short description of series [4]: Aqueous solubility of the compound.
A short description of series [5]: Lipophilicity, log D of the compound. To be noted: octanol/water.
The nature of series [6]: (§2) Intrinsic clearance in human liver microsomes. To be noted: liver microsomes, CLH. A general note: Liver microsomes are vesicles of endoplasmic reticulum, rich in cytochrome P450 enzymes.
Series [7] has as its target Voltage-gated inwardly rectifying potassium channel KCNH2 (Homo sapiens, UniProt Q12809). Description: Inhibition of human ERG.
The nature of series [8]: Inhibition of Cytochrome P450 (unknown origin). It counts as ADME. To be noted: human.
The nature of series [9]: Intrinsic clearance in rat microsomes. It counts as ADME, Microsome.
Series [10] deals with Baculoviral IAP repeat-containing protein 2 (Homo sapiens, UniProt Q13490).
Description: Inhibition of cIAP1 BIR3 domain (unknown origin) by fluorescence polarization assay
Series [11] has as its system Plasma. The series is described as §1.
Series [12] concerns Liver microsome. Described as §2. To be noted: microsomes.

By IC50 is commonly meant the point on the concentration scale where inhibition reaches its midpoint. Low readings indicate higher potency, high ones lower potency. As usually defined, the GI50 is the concentration at which growth is held to half of that of the control. Higher therefore signals lower sensitivity of the cells. Broadly, the fraction unbound is free concentration divided by total concentration. High values mean weak binding, low ones extensive binding. For orientation: solubility means how much of the substance goes into solution per volume. Usually logD stands for the decadic logarithm of the distribution of all forms, ionised or not, between an organic phase and buffer at a given pH. What is called microsomal CLint is a measure of how fast metabolising enzymes remove a compound, apart from limits set by blood flow. Higher therefore signals faster metabolism. As for `CN[C@@H](C)C(=O)N[C@H]1CCC[C@H]2C[C@H]3CCN(Cc4ccccc4)C[C@H]3N2C1=O`, the 50% inhibitory concentration (IC50) in [1] was more than 10000 nM. The same molecule showed a concentration for 50% growth inhibition (GI50) in series [2] (Homo sapiens, MDA-MB-231) of more than 11000 nM. The same molecule yielded a free fraction (fraction unbound) in series [3] of 0.52. Besides, the solubility in [4] was more than 1000 µM. Moreover, the logD in [5] (logD) is 0.8. The molecule also came in with a microsomal CLint in series [6] of 7.1 µL/min/mg.

For the molecule `CN[C@@H](C)C(=O)N[C@H]1CCC[C@H]2C[C@H]3CCN(C(=O)C(OCC#CC#CCOC(C(=O)N4CC[C@@H]5C[C@@H]6CCC[C@H](NC(=O)[C@H](C)NC)C(=O)N6[C@@H]5C4)c4ccccc4)c4ccccc4)C[C@H]3N2C1=O` (stereo in doubt; 53), the GI50 in series [2] came out at 10 nM. The molecule further registered a fraction unbound in series [3] of 0.051. The solubility in series [4] was more than 1000 µM. The molecule further registered a logD in [5] (logD) of 1.8. The INH was more than 33 µM in series [7] and more than 20 µM in series [8]. The molecule further registered a microsomal CLint in series [9] of 7 µL/min/mg.

`CN[C@@H](C)C(=O)N[C@H]1CCC[C@H]2C[C@H]3CCN(S(=O)(=O)c4ccccc4)C[C@H]3N2C1=O` registered a fraction unbound in series [3] of 0.2. Moreover, in series [4], the solubility was more than 1000 µM. This molecule also displayed a logD in series [5] (logD) of 0.7. Moreover, the microsomal CLint in [6] was found to be 7.1 µL/min/mg. The same molecule yielded an IC50 in series [10] of 8000 nM.

On to `CN[C@@H](C)C(=O)N[C@H]1CCC[C@H]2C[C@H]3CCN(CCc4ccc(C(F)(F)F)cc4)C[C@H]3N2C1=O`, for which the IC50 in series [1] is more than 10000 nM. Moreover, the GI50 in series [2] (Homo sapiens, MDA-MB-231) was found to be 970 nM. The molecule further showed a fraction unbound in series [3] of 0.18. Besides, the solubility in series [4] was more than 1000 µM. The log distribution coefficient (logD) in series [5] (logD) was determined as 2.1. The molecule also registered an intrinsic metabolic clearance (microsomal CLint) in series [6] of 5.2 µL/min/mg.

In the case of `CN[C@@H](C)C(=O)N[C@H]1CCC[C@H]2C[C@H]3CCN(CCc4nc5cc(C)ccc5[nH]4)C[C@H]3N2C1=O`, the 50% inhibitory concentration (IC50) in series [1] is more than 10000 nM. Besides, in [4], the solubility was more than 1000 µM. In addition, the logD in series [5] (logD) amounted to 1.3. In addition, the microsomal CLint in [6] is 9.1 µL/min/mg.

`CN[C@@H](C)C(=O)N[C@H]1CCC[C@H]2C[C@H]3CCN(CC4CCCCC4)C[C@H]3N2C1=O`: the IC50 in series [1] is more than 10000 nM. It took 2000 nM to inhibit growth in [2] (Homo sapiens, MDA-MB-231) by half (GI50). The molecule also returned a logD in series [5] (logD) of 0.9. Also, in series [6], the microsomal CLint was found to be 8.9 µL/min/mg.

In [2], `CN[C@@H](C)C(=O)N[C@H]1CCC[C@H]2C[C@H]3CCN(C(=O)C(OCC#CC#CCOC(C(=O)N4CC[C@@H]5C[C@@H]6CCC[C@H](NC(=O)[C@H](C)NC)C(=O)N6[C@@H]5C4)c4ccccc4)c4ccccc4)C[C@H]3N2C1=O` (single isomer, unassigned; isomer 2) gave a concentration for 50% growth inhibition (GI50) of 200 nM. The Fu in [11] was 10%. In addition, in [5], the logD is 1.9.

Molecule `CN[C@@H](C)C(=O)N[C@H]1CCC[C@H]2C[C@H]3CCN(CC(C)c4ccccc4)C[C@H]3N2C1=O` (mixture of isomers) gave a concentration for 50% growth inhibition (GI50) in series [2] (Homo sapiens, MDA-MB-231) of 2500 nM. In series [3], this molecule registered a free fraction (fraction unbound) of 0.18. The logD in [5] (logD) turned out to be 1.4. Besides, the microsomal CLint in series [6] is less than 4 µL/min/mg. The same molecule had a half-maximal inhibitory concentration (IC50) in series [10] of 180 nM.

In turn, `CN[C@@H](C)C(=O)N[C@H]1CCC[C@H]2C[C@H]3CCN(S(=O)(=O)Cc4ccccc4)C[C@H]3N2C1=O` gave a GI50 in series [2] (Homo sapiens, MDA-MB-231) of more than 11000 nM. For the same molecule, the fraction unbound in [3] came out at 0.4. This molecule registered a solubility in series [4] of more than 1000 µM. Moreover, in series [5] (logD), the pH-dependent lipophilicity (logD) was found to be 0.4. The intrinsic clearance (microsomal CLint) in [6] was 25 µL/min/mg. The IC50 in [10] stood at 2800 nM.

Take `CN[C@@H](C)C(=O)N[C@H]1CCC[C@H]2C[C@H]3CCN(C(=O)c4ccccc4)C[C@H]3N2C1=O`: the IC50 in series [1] and in series [10] was more than 10000 nM in each case. This molecule also gave a fraction unbound in series [3] of more than 0.7. The same molecule had a solubility in series [4] of more than 1000 µM. In series [5] (logD), this molecule registered a logD of -0.4. Further, the microsomal CLint in series [6] turned out to be 7.05 µL/min/mg.

The molecule `CN[C@@H](C)C(=O)N[C@H](C(=O)N1CC[C@H]2CCN(CCc3ccccc3)C[C@H]21)C1CCCCC1` displayed an unbound share (fraction unbound) in series [3] of 0.057. In [4], this molecule showed a solubility of more than 1000 µM. This molecule displayed a logD in [5] (logD) of 2.5. Further, in series [6], the microsomal CLint came to 32 µL/min/mg. This molecule also displayed a half-inhibitory concentration (IC50) in series [10] of 27 nM.

`CN[C@@H](C)C(=O)N[C@H]1CCC[C@H]2C[C@H]3CCN(CCc4ccc(F)cc4)C[C@H]3N2C1=O` yielded a 50% growth inhibitory concentration (GI50) in [2] (Homo sapiens, MDA-MB-231) of 120 nM. In series [3], the fraction unbound came out at 0.48. This molecule also returned a solubility in series [4] of more than 1000 µM. Also, the logD in series [5] (logD) was found to be 1.3. Moreover, the microsomal CLint in series [6] is less than 4 µL/min/mg. In series [10], this molecule registered an IC50 of 21 nM.

For `CN[C@@H](C)C(=O)N[C@H]1CCC[C@H]2C[C@H]3CCN(C(c4ccccc4)c4ccccc4)C[C@H]3N2C1=O`, the IC50 in series [1] was more than 10000 nM. The molecule also returned a fraction unbound in [3] of 0.049. This molecule also had a solubility in series [4] of more than 1000 µM. In series [5] (logD), this molecule gave a logD of 2.7. The molecule also registered a microsomal CLint in series [6] of 14 µL/min/mg.

On to `C#CCOCC(C(=O)N1CC[C@@H]2C[C@@H]3CCC[C@H](NC(=O)[C@H](C)NC)C(=O)N3[C@@H]2C1)c1ccccc1` (stereo in doubt; 42), for which the GI50 in series [2] is 3700 nM. In series [3], this molecule gave a fraction unbound of 0.14. This molecule registered a solubility in series [4] of more than 1000 µM. In [5] (logD), the logD amounted to 0.6. In series [12], this molecule displayed a CLH of 23 µL/min/mg.

Consider `CN[C@@H](C)C(=O)N[C@H]1CCC[C@H]2SC(C)(C)C(C(=O)Nc3cc(C)nn3-c3ccccc3)N2C1=O` (stereo partly specified), for which it took 50 nM to reach half-maximal inhibition in series [10] (IC50).

In [2], `C#CCOCC(C(=O)N1CC[C@@H]2C[C@@H]3CCC[C@H](NC(=O)[C@H](C)NC)C(=O)N3[C@@H]2C1)c1ccccc1` (stereo in doubt; 43) yielded a GI50 of more than 11000 nM. The molecule further displayed a Fu in series [11] of 17%. The molecule also showed a logD in series [5] of 0.8. In series [12], the CLH stood at 8.5 µL/min/mg.

`CCCCN1CC[C@@H]2C[C@@H]3CCC[C@H](NC(=O)[C@H](C)NC)C(=O)N3[C@@H]2C1`: the IC50 in series [1] was more than 10000 nM; in series [10], 1200 nM.

For the molecule `CN[C@@H](C)C(=O)N[C@H]1CCC[C@H]2C[C@H]3CCN(CCC4CCCCC4)C[C@H]3N2C1=O`, in series [1], the IC50 was more than 10000 nM. Further, growth in [2] (Homo sapiens, MDA-MB-231) was halved (GI50) at 1300 nM. The same molecule returned a free fraction (fraction unbound) in [3] of 0.49. The molecule further yielded a solubility in series [4] of more than 1000 µM. Also, the logD in series [5] (logD) worked out at 1.5. This molecule also registered a microsomal CLint in [6] of 5 µL/min/mg.
